Assay: xn = mol fraction of the nth substance listed, in the solute-free solvent

CC1CCC2C(C)C(OC(=O)CCC(=O)O)OC3OC4(C)CCC1C32OO4 (stereo unspecified) + CC(C)O + O
solubility (g/100 g solution)
Details | 278.15 K | 283.15 K | 288.15 K | 293.15 K | 298.15 K | 303.15 K | 308.15 K | 313.15 K | 318.15 K
x2 = 0.03232 | 0.0811 | 0.106 | 0.134 | 0.171 | 0.208 | 0.263 | 0.325 | 0.397 | 0.486
x2 = 0.06978 | 0.226 | 0.289 | 0.358 | 0.447 | 0.536 | 0.663 | 0.804 | 0.965 | 1.16
x2 = 0.114 | 0.47 | 0.591 | 0.72 | 0.884 | 1.05 | 1.27 | 1.52 | 1.8 | 2.13
x2 = 0.1666 | 0.786 | 0.985 | 1.18 | 1.43 | 1.68 | 2.02 | 2.37 | 2.77 | 3.23
x2 = 0.2309 | 1.12 | 1.38 | 1.65 | 1.97 | 2.31 | 2.72 | 3.18 | 3.68 | 4.25
x2 = 0.3106 | 1.41 | 1.7 | 2.02 | 2.43 | 2.8 | 3.3 | 3.83 | 4.42 | 5.04
x2 = 0.4116 | 1.62 | 1.95 | 2.3 | 2.75 | 3.15 | 3.69 | 4.24 | 4.87 | 5.54
x2 = 0.5455 | 1.77 | 2.13 | 2.49 | 2.94 | 3.37 | 3.92 | 4.5 | 5.12 | 5.8
x2 = 0.7299 | 1.84 | 2.17 | 2.53 | 3 | 3.42 | 3.96 | 4.53 | 5.15 | 5.78

CCOC(=O)OC1=C(c2cc(C)ccc2C)C(=O)NC12CCC(OC)CC2 (stereo unspecified) + CC(C)O + O
solubility (g/100 g solution)
Details | 278.15 K | 283.15 K | 288.15 K | 293.15 K | 298.15 K | 303.15 K | 308.15 K | 313.15 K | 318.15 K
x2 = 0.2 | 0.638 | 0.86 | 1.19 | 1.61 | 2.18 | 2.85 | 3.73 | 4.8 | 6.15
x2 = 0.4 | 2.55 | 2.99 | 3.88 | 5 | 6.36 | 8.23 | 10.4 | 13.1 | 16.5
x2 = 0.6 | 3.11 | 3.92 | 5.04 | 6.01 | 7.67 | 9.71 | 12.3 | 15.4 | 19.1
x2 = 0.8 | 2.53 | 3.07 | 3.85 | 5.03 | 6.44 | 8.1 | 10.2 | 13.2 | 16.5

Cc1nc2n(c(=O)c1CCN1CCC(c3noc4cc(F)ccc34)CC1)CCCC2 + CC(C)O + O
solubility (g/100 g solution)
Details | 278.15 K | 283.15 K | 288.15 K | 293.15 K | 298.15 K | 303.15 K | 308.15 K | 313.15 K
x2 = 0.1139 | 0.369 | 0.473 | 0.605 | 0.788 | 0.98 | 1.22 | 1.52 | 1.88
x2 = 0.1664 | 1.41 | 1.66 | 1.99 | 2.47 | 2.94 | 3.63 | 4.31 | 5.25
x2 = 0.2308 | 2.72 | 3.2 | 3.94 | 4.7 | 5.66 | 6.83 | 8.2 | 9.98
x2 = 0.3101 | 4.21 | 4.9 | 5.85 | 6.92 | 8.29 | 9.97 | 11.9 | 14.2
x2 = 0.4116 | 4.95 | 5.81 | 6.87 | 8.09 | 9.69 | 11.5 | 13.5 | 16.3
x2 = 0.5454 | 4.55 | 5.34 | 6.38 | 7.46 | 8.78 | 10.4 | 12.3 | 14.6
x2 = 0.7297 | 2.53 | 3.02 | 3.63 | 4.31 | 5.08 | 6.06 | 7.28 | 8.7

c1ccc(-c2ccc(C(c3ccccc3)n3ccnc3)cc2)cc1 (stereo unspecified) + CC(C)O + O
solubility (g/100 g solution)
Details | 278.15 K | 283.15 K | 288.15 K | 293.15 K | 298.15 K | 303.15 K | 308.15 K | 313.15 K | 318.15 K
x2 = 0.03225 | 0.0342 | 0.0473 | 0.0644 | 0.0851 | 0.103 | 0.142 | 0.189 | 0.234 | 0.294
x2 = 0.06974 | 0.0839 | 0.115 | 0.155 | 0.204 | 0.247 | 0.338 | 0.444 | 0.549 | 0.687
x2 = 0.1139 | 0.17 | 0.232 | 0.31 | 0.408 | 0.497 | 0.673 | 0.876 | 1.09 | 1.35
x2 = 0.1666 | 0.29 | 0.394 | 0.525 | 0.692 | 0.849 | 1.14 | 1.48 | 1.84 | 2.29
x2 = 0.2307 | 0.426 | 0.578 | 0.767 | 1.05 | 1.37 | 1.77 | 2.24 | 2.81 | 3.38
x2 = 0.3103 | 0.547 | 0.744 | 0.987 | 1.32 | 1.65 | 2.2 | 2.83 | 3.56 | 4.43
x2 = 0.4117 | 0.629 | 0.928 | 1.26 | 1.69 | 2.19 | 2.73 | 3.34 | 4.23 | 5.29
x2 = 0.5454 | 0.662 | 0.935 | 1.36 | 1.8 | 2.39 | 2.97 | 3.63 | 4.64 | 5.84
x2 = 0.7297 | 0.651 | 0.899 | 1.25 | 1.75 | 2.25 | 2.98 | 3.86 | 4.96 | 6.12

CC1CCC2C(C)C(OC(=O)CCC(=O)O)OC3OC4(C)CCC1C32OO4 (stereo unspecified) + CC(O)CO + O
solubility (g/100 g solution)
Details | 278.15 K | 283.15 K | 288.15 K | 293.15 K | 298.15 K | 303.15 K | 308.15 K | 313.15 K | 318.15 K
x2 = 0.02567 | 0.0421 | 0.056 | 0.0717 | 0.092 | 0.114 | 0.145 | 0.181 | 0.223 | 0.275
x2 = 0.05599 | 0.0843 | 0.11 | 0.139 | 0.176 | 0.215 | 0.27 | 0.333 | 0.404 | 0.492
x2 = 0.0921 | 0.155 | 0.201 | 0.25 | 0.313 | 0.377 | 0.466 | 0.568 | 0.682 | 0.819
x2 = 0.1363 | 0.259 | 0.33 | 0.408 | 0.503 | 0.606 | 0.737 | 0.888 | 1.05 | 1.25
x2 = 0.1915 | 0.384 | 0.484 | 0.593 | 0.724 | 0.853 | 1.03 | 1.23 | 1.45 | 1.71
x2 = 0.2622 | 0.501 | 0.635 | 0.77 | 0.932 | 1.1 | 1.3 | 1.55 | 1.81 | 2.09
x2 = 0.3554 | 0.579 | 0.73 | 0.88 | 1.06 | 1.24 | 1.46 | 1.72 | 2 | 2.3
x2 = 0.4866 | 0.602 | 0.746 | 0.906 | 1.08 | 1.27 | 1.48 | 1.75 | 2.01 | 2.31
x2 = 0.6826 | 0.571 | 0.704 | 0.845 | 1.02 | 1.19 | 1.38 | 1.62 | 1.86 | 2.12

c1ccc(-c2ccc(C(c3ccccc3)n3ccnc3)cc2)cc1 (stereo unspecified) + CC(O)CO + O
solubility (g/100 g solution)
Details | 278.15 K | 283.15 K | 288.15 K | 293.15 K | 298.15 K | 303.15 K | 308.15 K | 313.15 K | 318.15 K
x2 = 0.02564 | 0.0702 | 0.0956 | 0.129 | 0.168 | 0.2 | 0.272 | 0.357 | 0.437 | 0.544
x2 = 0.0559 | 0.223 | 0.3 | 0.398 | 0.511 | 0.608 | 0.812 | 1.05 | 1.27 | 1.56
x2 = 0.09214 | 0.441 | 0.588 | 0.777 | 0.991 | 1.18 | 1.56 | 2 | 2.41 | 2.96
x2 = 0.1364 | 0.633 | 0.843 | 1.11 | 1.42 | 1.71 | 2.23 | 2.85 | 3.45 | 4.22
x2 = 0.1915 | 0.747 | 0.998 | 1.32 | 1.73 | 2.16 | 2.74 | 3.47 | 4.21 | 5.14
x2 = 0.2621 | 0.794 | 1.06 | 1.41 | 1.82 | 2.24 | 2.91 | 3.71 | 4.55 | 5.62
x2 = 0.3559 | 0.86 | 1.14 | 1.5 | 1.93 | 2.42 | 3.13 | 4 | 4.89 | 5.95
x2 = 0.4865 | 0.859 | 1.2 | 1.6 | 2.03 | 2.59 | 3.24 | 3.98 | 4.95 | 6.18
x2 = 0.6806 | 0.776 | 1.06 | 1.42 | 1.94 | 2.58 | 3.33 | 4.25 | 5.2 | 6.23

CC(S)C(=O)NCC(=O)O (stereo unspecified) + CCCCO + CC#N
solubility (g/100 g solution)
Details | 273.15 K | 278.15 K | 283.15 K | 288.15 K | 293.15 K | 298.15 K | 303.15 K | 308.15 K | 313.15 K | 318.15 K
x2 = 0.1216 | 3.87 | 4.43 | 4.99 | 5.57 | 6.21 | 6.84 | 7.49 | 8.19 | 8.94 | 9.75
x2 = 0.2697 | 4.29 | 4.96 | 5.69 | 6.46 | 7.28 | 8.08 | 8.92 | 9.79 | 10.7 | 11.9
x2 = 0.4538 | 4.43 | 4.94 | 5.58 | 6.3 | 7.26 | 8.29 | 9.41 | 10.6 | 11.8 | 13
x2 = 0.689 | 4.42 | 5.29 | 6.26 | 7.32 | 8.38 | 9.51 | 10.7 | 12 | 13.3 | 14.7

CC(S)C(=O)NCC(=O)O (stereo unspecified) + CCCCO + Cc1ccccc1
solubility (g/100 g solution)
Details | 273.15 K | 278.15 K | 283.15 K | 288.15 K | 293.15 K | 298.15 K | 303.15 K | 308.15 K | 313.15 K | 318.15 K
x2 = 0.2371 | 0.947 | 1.12 | 1.28 | 1.47 | 1.67 | 1.87 | 2.08 | 2.33 | 2.6 | 2.92
x2 = 0.4531 | 2.23 | 2.53 | 2.88 | 3.29 | 3.76 | 4.25 | 4.73 | 5.25 | 5.84 | 6.48
x2 = 0.6509 | 2.84 | 3.41 | 4.01 | 4.7 | 5.45 | 6.25 | 7.12 | 7.99 | 8.88 | 10
x2 = 0.8325 | 3.57 | 4.44 | 5.37 | 6.33 | 7.31 | 8.43 | 9.63 | 11 | 12.3 | 13.9

— the CheMixHub drug solubility set
